This note sets out measurements from patent publication US8865894B2, “Oxazolidin-2-one compounds and uses thereof” (Novartis AG, priority 2012, dated 2014).

Structures are written as SMILES.

The assay concerns the target T1, human PI3Kbeta p110 catalytic subunit (Rat-1 pBABEpuro Myr-HA-hp110 beta) (Homo sapiens, UniProt P42338).
T1 construct: Myr (myristoylation signal) (N); HA (N); expressed in transfected cells; host or cells: Rat-1
As to the kind of experiment: Cellular assay PI3Kbeta (p-Akt(S473) SureFire, Rat-1_PI3beta cells). Type of assay: cell-based. The following applies: p-Akt(S473), 1 h compound treatment; read-out: Rat1-PI3Kb/ IC50. The text has this:
AlphaScreen (Amplified Luminescent Proximity Homogeneous Assay, ALPHA, Perkin Elmer) is a non-radioactive bead-based proximity assay technology to study biomolecular interactions in a homogenous microtiter plate format. The brand name SureFire denotes AlphaScreen assays that are adapted to quantify the phosphorylation of endogenous cellular proteins in cell lysates, by using matched antibody pairs, which consist of an anti-phospho-kinase and an anti-kinase antibody. The assay allows characterization of kinase signaling in cells as well as measurement of kinase inhibitor effects. The AlphaScreen technology provides several advantages over standard assay techniques such as ELISA, as it avoids time-consuming washing procedures and reduces plate handling. Furthermore, it is miniaturizable at least to a 384-well format and provides sensitivity down to the femtomolar range, dependent on the affinity of the antibodies included in the individual AlphaScreen SureFire assay kit. High sensitivity is reached by an intrinsic amplification mechanism, which involves production of singlet oxygen molecules. SureFire assay kits are commercially available for specific targets and include pairs of validated antibodies (PerkinElmer). This report describes common procedures applied for AlphaScreen SureFire assays and respective semi-automated steps for routine kinase inhibitor profiling in cell-based assays.
The Rat-1 cell lines stably overexpressing activated PI3K class I isoforms Rat-1 pBABEpuro Myr-HA-hp110 delta (Rat-1_PI3Kdelta) and Rat-1 pBABEpuro Myr-HA-hp110alpha (Rat-1_PI3Kalpha) and Rat-1 pBABEpuro Myr-HA-hp110 beta (Rat-1_PI3beta) were prepared as described (Maira S M, Stauffer F, Brueggen J, Furet P, Schnell C, Fritsch C, Brachmann S, Chène P, de Pover A, Schoemaker K, Fabbro D, Gabriel D, Simonen M, Murphy L, Finan P, Sellers W, García-Echeverría C (2008), Mol Cancer Ther. 7:1851-63 and Maira S M, Pecchi S, Brueggen J, Huh K, Schnell C, Fritsch C, Nagel T, Wiesmann M, Brachmann S, Dorsch M, Chène P, Schoemaker K, De Pover A, Menezes D, Fabbro D, Sellers W, García-Echeverría C, Voliva C F (2011), Mol. Cancer Ther., accepted). All cell lines were cultivated in complete growth medium (DMEM high glucose, 10% (v/v) fetal bovine serum, 1% (v/v) MEM NEAA, 10 mM HEPES, 2 mM L-glutamine, puromycin (10 μg/mL for Rat-1_PI3Kdelta and Rat-1_PI3Kalpha, 4 ug/mL for Rat-1_PI3beta), 1% (v/v) Pen/Strep) to 90% confluency at 37° C./5% CO2/90% humidity in a humidified CO2 incubator and were split twice a week.
The following materials were used for p-AKT(S473) detection in Rat-1 cell lysates: Dulbecco's modified Eagle's medium (DMEM) high glucose (Gibco Invitrogen, Basel, Switzerland, Cat. No. 41965), Heat Inactivated Fetal Bovine Serum, Qualified (HI FBS; Gibco Invitrogen, Basel, Switzerland, Lot. No. 16140), MEM non essential amino acids (NEAA; Gibco Invitrogen, Basel, Switzerland, Cat. No. 11140), HEPES (Gibco Invitrogen, Basel, Switzerland, Cat. No. 15630), Penicillin/Streptomycin (Pen/Strep, 100×; Gibco Invitrogen, Basel, Switzerland, Cat. No. 15140-122), L-Glutamine (Gibco Invitrogen, Basel, Switzerland, Cat. No. 25030), Puromycin (Sigma Aldrich, Buchs, Switzerland, Cat. No. P9620), DMSO (MERCK, Dietikon, Switzerland, Cat. No. 8.02912.2500), H2O, MilliQ-H2O unless otherwise stated (MILLIPORE QGARDOOR1, Millipore, Zug, Switzerland), Bovine serum albumine (BSA; Sigma Aldrich, Buchs, Switzerland Cat. No. A8412), SureFire p-Akt 1/2 (Ser473) Assay Kit (PerkinElmer, Schwerzenbach, Switzerland, Cat. No. TGRAS50K).
The p-Akt(S473) SureFire assay measures the phosphorylation of endogenous cellular Akt 1/2 at Ser473 in cell lysates. Using Rat-1 cells stably expressing myr-HA-tagged versions of the human PI3Kdelta, PI3Kalpha, or PI3Kbeta p110 catalytic subunit isoforms, the assay was developed as a two-plate protocol in a 384-well format.

T1 sequence (P42338 whole entry): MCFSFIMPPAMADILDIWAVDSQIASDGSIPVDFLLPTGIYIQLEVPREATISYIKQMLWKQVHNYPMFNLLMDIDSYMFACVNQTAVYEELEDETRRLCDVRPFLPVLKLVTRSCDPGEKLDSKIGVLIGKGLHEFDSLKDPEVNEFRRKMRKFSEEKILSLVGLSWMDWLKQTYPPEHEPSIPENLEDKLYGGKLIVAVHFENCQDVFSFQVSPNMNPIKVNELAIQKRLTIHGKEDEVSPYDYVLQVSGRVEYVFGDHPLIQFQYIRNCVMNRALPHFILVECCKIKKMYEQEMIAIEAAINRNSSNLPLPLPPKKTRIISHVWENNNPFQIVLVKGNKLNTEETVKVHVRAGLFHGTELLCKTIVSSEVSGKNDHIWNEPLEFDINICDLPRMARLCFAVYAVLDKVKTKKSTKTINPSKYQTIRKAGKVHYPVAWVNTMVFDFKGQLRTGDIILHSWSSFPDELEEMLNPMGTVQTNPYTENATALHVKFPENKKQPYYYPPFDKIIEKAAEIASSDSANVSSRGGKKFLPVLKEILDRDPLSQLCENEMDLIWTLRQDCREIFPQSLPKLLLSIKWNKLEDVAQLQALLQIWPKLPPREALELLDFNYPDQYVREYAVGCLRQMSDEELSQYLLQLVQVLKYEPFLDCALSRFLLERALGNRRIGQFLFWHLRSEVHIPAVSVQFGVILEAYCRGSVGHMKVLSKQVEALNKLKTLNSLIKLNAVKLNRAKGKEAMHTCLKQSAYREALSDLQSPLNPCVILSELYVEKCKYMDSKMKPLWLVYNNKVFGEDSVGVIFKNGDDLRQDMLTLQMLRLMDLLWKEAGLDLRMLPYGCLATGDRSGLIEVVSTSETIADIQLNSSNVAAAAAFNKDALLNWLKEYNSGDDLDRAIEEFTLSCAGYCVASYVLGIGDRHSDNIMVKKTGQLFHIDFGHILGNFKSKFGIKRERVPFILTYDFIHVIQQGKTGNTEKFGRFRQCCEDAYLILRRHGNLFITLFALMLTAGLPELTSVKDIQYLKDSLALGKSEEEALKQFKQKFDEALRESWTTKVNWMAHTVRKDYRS
T1 sequence (Q63787 whole entry partner): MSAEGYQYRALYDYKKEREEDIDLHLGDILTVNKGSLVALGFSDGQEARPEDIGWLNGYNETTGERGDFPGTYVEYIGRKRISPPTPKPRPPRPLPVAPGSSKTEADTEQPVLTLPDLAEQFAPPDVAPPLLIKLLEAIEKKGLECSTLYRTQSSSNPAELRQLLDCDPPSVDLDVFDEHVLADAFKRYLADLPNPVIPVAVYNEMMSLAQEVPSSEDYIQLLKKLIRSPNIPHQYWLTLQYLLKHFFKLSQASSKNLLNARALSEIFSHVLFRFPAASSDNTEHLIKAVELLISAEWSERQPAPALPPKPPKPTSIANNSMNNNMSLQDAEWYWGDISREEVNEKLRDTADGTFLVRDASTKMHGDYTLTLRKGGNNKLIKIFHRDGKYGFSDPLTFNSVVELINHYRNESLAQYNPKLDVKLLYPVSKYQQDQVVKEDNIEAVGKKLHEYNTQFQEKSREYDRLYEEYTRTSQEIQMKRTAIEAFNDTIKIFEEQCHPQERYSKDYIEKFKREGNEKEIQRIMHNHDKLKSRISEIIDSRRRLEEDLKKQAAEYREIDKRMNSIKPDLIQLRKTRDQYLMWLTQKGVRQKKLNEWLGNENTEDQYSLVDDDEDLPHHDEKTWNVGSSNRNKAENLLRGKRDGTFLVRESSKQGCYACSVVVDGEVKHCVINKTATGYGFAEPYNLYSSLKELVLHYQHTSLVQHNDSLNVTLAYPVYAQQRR

With `C[C@H]1[C@@H](CO)OC(=O)N1c1cc(-c2cnc(N)nc2C(F)(F)F)nc(N2CCOCC2)n1` [Example 19, (4S,5S)-3-(2′-Amino-2-morpholin-4-yl-4′-trifluoromethyl-[4,5′]bipyrimidinyl-6-yl)-5-hydroxymethyl-4-methyl-oxazolidin-2-one], the IC50 amounted to 71 nM.
Regarding `Nc1ncc(-c2cc(N3C[C@H](CO)OC3=O)nc(N3CCOCC3)n2)c(C(F)(F)F)n1` [Example 20, (R)-3-(2′-Amino-2-morpholin-4-yl-4′-trifluoromethyl-[4,5′]bipyrimidinyl-6-yl)-5-hydroxymethyl-oxazolidin-2-one], the IC50 was determined as 124 nM.
The value for `Nc1ncc(-c2cc(N3C(=O)O[C@H]4COC[C@H]43)nc(N3CCOCC3)n2)c(C(F)(F)F)n1` [Example 21, (3aR,6aR)-3-(2′-amino-2-morpholino-4′-(trifluoromethyl)-[4,5′-bipyrimidin]-6-yl)-tetrahydrofuro[3,4-d]oxazol-2(3H)-one] was 46 nM; that for `C[C@H]1[C@@H](CCO)OC(=O)N1c1cc(-c2cnc(N)nc2C(F)(F)F)nc(N2CCOCC2)n1` [Example 23, (4S,5R)-3-(2′-Amino-2-morpholino-4′-(trifluoromethyl)-[4,5′-bipyrimidin]-6-yl)-5-(2-hydroxyethyl)-4-methyloxazolidin-2-one] was 27 nM.
